Data: PubChem BioAssay AID1845207 (Molecular Pharmacology Branch, DTP, NCI, 2023)

Tested on: NCI-H1876 tumor spheroid viability
Assay: Anticancer human tumor NCI-H1876 cell line growth inhibition;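 note: spheroids exposed to compounds for seven days before the viability read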;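 for viability, T/C: percent of DMSO vehicle control viability so 100% = vehicle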
Settings: spheroids with HUVEC and MSC; for IC50: curve of first compound; for viability, T/C: stronger effect = lower value
How it was run: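 Complex spheroids of malignant cells with endothelial cells and mesenchymal stem cells; agents alone or combined, from near clinical Cmax (or 10 microM if unknown) down in half-log steps, 0.25% DMSO final.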

[1] = second compound 30 pM, first compound 0.0316 µM
[2] = second compound 30 pM, first compound 0.1 µM
[3] = second compound 30 pM, first compound 0.316 µM
[4] = second compound 30 pM, first compound 1 µM
[5] = second compound 30 pM, first compound 3.16 µM
[6] = second compound 30 pM, first compound 10 µM
[7] = second compound 94.9 pM, first compound 0.0316 µM
[8] = second compound 94.9 pM, first compound 0.1 µM
[9] = second compound 94.9 pM, first compound 0.316 µM
[10] = second compound 94.9 pM, first compound 1 µM
[11] = second compound 94.9 pM, first compound 3.16 µM
[12] = second compound 94.9 pM, first compound 10 µM
[13] = second compound 0.0003 µM, first compound 0.0316 µM
[14] = second compound 0.0003 µM, first compound 0.1 µM
[15] = second compound 0.0003 µM, first compound 0.316 µM
[16] = second compound 0.0003 µM, first compound 1 µM
[17] = second compound 0.0003 µM, first compound 3.16 µM
[18] = second compound 0.0003 µM, first compound 10 µM
[19] = second compound 0.000949 µM, first compound 0.0316 µM
[20] = second compound 0.000949 µM, first compound 0.1 µM
[21] = second compound 0.000949 µM, first compound 0.316 µM
[22] = second compound 0.000949 µM, first compound 1 µM
[23] = second compound 0.000949 µM, first compound 3.16 µM
[24] = second compound 0.000949 µM, first compound 10 µM
[25] = second compound 0.003 µM, first compound 0.0316 µM
[26] = second compound 0.003 µM, first compound 0.1 µM
[27] = second compound 0.003 µM, first compound 0.316 µM
[28] = second compound 0.003 µM, first compound 1 µM
[29] = second compound 0.003 µM, first compound 3.16 µM
[30] = second compound 0.003 µM, first compound 10 µM

SMILES	IC50 (second compound 30 pM)	IC50 (second compound 94.9 pM)	IC50 (second compound 0.0003 µM)	IC50 (second compound 0.000949 µM)	IC50 (second compound 0.003 µM)	viability, T/C [1]	viability, T/C [2]	viability, T/C [3]	viability, T/C [4]	viability, T/C [5]	viability, T/C [6]	viability, T/C [7]	viability, T/C [8]	viability, T/C [9]	viability, T/C [10]	viability, T/C [11]	viability, T/C [12]	viability, T/C [13]	viability, T/C [14]	viability, T/C [15]	other results
CC(C)n1c(=O)n(C)c2cnc3cc(F)c(-c4ccc(OCCCN5CCCCC5)nc4)cc3c21 + COc1cc2c(cc1O)CCNC21CSC2c3c(OC(C)=O)c(C)c4c(c3C(COC1=O)N1C(O)C3Cc5cc(C)c(OC)c(O)c5C(C21)N3C)OCO4	> 10000 nM	> 10000 nM	< 31.6 nM	< 31.6 nM	< 31.6 nM	94%	93.1%	95%	95.5%	93.7%	86.7%	66.3%	58.5%	49.3%	53.5%	55.2%	46.8%	10.7%	9.04%	11%	viability, T/C [16]: 9.85%; viability, T/C [17]: 12.3%; viability, T/C [18]: 9.65%; viability, T/C [19]: 2.08%; viability, T/C [20]: 1.93%; viability, T/C [21]: 1.77%; viability, T/C [22]: 1.8%; viability, T/C [23]: 2.69%; viability, T/C [24]: 2.47%; viability, T/C [25]: 0.9%; viability, T/C [26]: 0.67%; viability, T/C [27]: 0.58%; viability, T/C [28]: 0.77%; viability, T/C [29]: 0.63%; viability, T/C [30]: 1.09%
CC1COCCN1c1cc(-c2ccnn2C)c2ccnc(-c3ccn[nH]3)c2n1 (stereo not given) + COc1cc2c(cc1O)CCNC21CSC2c3c(OC(C)=O)c(C)c4c(c3C(COC1=O)N1C(O)C3Cc5cc(C)c(OC)c(O)c5C(C21)N3C)OCO4	< 31.6 nM	< 31.6 nM	< 31.6 nM	< 31.6 nM	< 31.6 nM	30.7%	17.9%	11.3%	4.58%	3.01%	2.83%	17.4%	10.3%	6.18%	3.39%	2.3%	2.27%	5.4%	4.29%	2.95%	viability, T/C [16]: 2.33%; viability, T/C [17]: 2.39%; viability, T/C [18]: 2.2%; viability, T/C [19]: 2.56%; viability, T/C [20]: 2.32%; viability, T/C [21]: 1.67%; viability, T/C [22]: 1.48%; viability, T/C [23]: 1.48%; viability, T/C [24]: 2.04%; viability, T/C [25]: 0.92%; viability, T/C [26]: 1.05%; viability, T/C [27]: 0.72%; viability, T/C [28]: 0.9%; viability, T/C [29]: 0.88%; viability, T/C [30]: 0.28%
COc1cc(C)[nH]c(=O)c1CN1CCc2c(Cl)cc(C(OC)C3COC3)c(Cl)c2C1=O (stereo not given) + COc1cc2c(cc1O)CCNC21CSC2c3c(OC(C)=O)c(C)c4c(c3C(COC1=O)N1C(O)C3Cc5cc(C)c(OC)c(O)c5C(C21)N3C)OCO4	> 10000 nM	> 10000 nM	< 31.6 nM	< 31.6 nM	< 31.6 nM	99.7%	104%	96.9%	97.6%	94.5%	90.5%	91.6%	89.6%	89.5%	86.9%	81.9%	76.7%	22%	21.2%	23.9%	viability, T/C [16]: 20.5%; viability, T/C [17]: 19.1%; viability, T/C [18]: 14%; viability, T/C [19]: 2.52%; viability, T/C [20]: 2.44%; viability, T/C [21]: 2.38%; viability, T/C [22]: 2.44%; viability, T/C [23]: 2.06%; viability, T/C [24]: 2.03%; viability, T/C [25]: 0.75%; viability, T/C [26]: 0.84%; viability, T/C [27]: 0.98%; viability, T/C [28]: 0.57%; viability, T/C [29]: 0.7%; viability, T/C [30]: 0.93%
COc1ccc([C@@H](O)c2cc(-c3ncnc4cc(N5CCOCC5)ccc34)c(F)cc2Cl)nn1 + COc1cc2c(cc1O)CCNC21CSC2c3c(OC(C)=O)c(C)c4c(c3C(COC1=O)N1C(O)C3Cc5cc(C)c(OC)c(O)c5C(C21)N3C)OCO4	2540 nM	778 nM	< 31.6 nM	< 31.6 nM	< 31.6 nM	104%	102%	99.5%	92%	40.2%	8.98%	93%	87.6%	78%	41.5%	16.1%	5.87%	20.7%	20.1%	15.1%	viability, T/C [16]: 7.3%; viability, T/C [17]: 2.15%; viability, T/C [18]: 2.31%; viability, T/C [19]: 2.44%; viability, T/C [20]: 2.76%; viability, T/C [21]: 3.13%; viability, T/C [22]: 1.08%; viability, T/C [23]: 0.81%; viability, T/C [24]: 0.98%; viability, T/C [25]: 0.93%; viability, T/C [26]: 0.67%; viability, T/C [27]: 0.53%; viability, T/C [28]: 0.63%; viability, T/C [29]: 0.36%; viability, T/C [30]: 0.33%
Cc1cc(C)c(CNC(=O)c2cc(-c3ccc(CN4CCOCC4)cc3)cc3c2cnn3C2CCCC2)c(=O)[nH]1 + COc1cc2c(cc1O)CCNC21CSC2c3c(OC(C)=O)c(C)c4c(c3C(COC1=O)N1C(O)C3Cc5cc(C)c(OC)c(O)c5C(C21)N3C)OCO4	> 10000 nM	> 10000 nM	< 31.6 nM	< 31.6 nM	< 31.6 nM	103%	101%	104%	104%	104%	85.3%	93.1%	94.2%	94.1%	91.5%	93.2%	63.8%	29.7%	33.7%	34.9%	viability, T/C [16]: 27.2%; viability, T/C [17]: 28.6%; viability, T/C [18]: 17.4%; viability, T/C [19]: 2.79%; viability, T/C [20]: 5.13%; viability, T/C [21]: 3.54%; viability, T/C [22]: 3.83%; viability, T/C [23]: 3.88%; viability, T/C [24]: 4.21%; viability, T/C [25]: 0.62%; viability, T/C [26]: 0.99%; viability, T/C [27]: 0.83%; viability, T/C [28]: 1.17%; viability, T/C [29]: 0.68%; viability, T/C [30]: 0.88%
[2H]c1nc(C)nc([2H])c1-c1cc(NC[C@@H](C)c2cccc3c(C(=O)NC)ccnc23)ncn1 + COc1cc2c(cc1O)CCNC21CSC2c3c(OC(C)=O)c(C)c4c(c3C(COC1=O)N1C(O)C3Cc5cc(C)c(OC)c(O)c5C(C21)N3C)OCO4	> 10000 nM	> 10000 nM	< 31.6 nM	< 31.6 nM	< 31.6 nM	102%	101%	101%	101%	100%	98%	90.8%	94.2%	94.6%	94.5%	93.9%	85.7%	31%	32.2%	35.5%	viability, T/C [16]: 30%; viability, T/C [17]: 31.6%; viability, T/C [18]: 21.6%; viability, T/C [19]: 3.38%; viability, T/C [20]: 2.4%; viability, T/C [21]: 2.32%; viability, T/C [22]: 2.39%; viability, T/C [23]: 2.46%; viability, T/C [24]: 3.2%; viability, T/C [25]: 0.5%; viability, T/C [26]: 0.64%; viability, T/C [27]: 0.5%; viability, T/C [28]: 0.66%; viability, T/C [29]: 0.74%; viability, T/C [30]: 0.7%
